Reference: ChEMBL document CHEMBL3044640, “Antifeedant, insect growth regulatory and insecticidal effects of Calceolaria talcana (Calceolariaceae) on Drosophila melanogaster and Spodoptera frugiperda” (2013)
≈ marks a conversion by molar mass, not a printed value. Calls of active or inactive are those of the source. The calls are words filed in the database; no cut-off is given here.

What was measured:
[1] = test system: Spodoptera frugiperda; assay: Insecticidal activity against larvae of Spodoptera frugiperda (fall armyworm) assessed growth index at 25 ppm; format: functional
[2] = test system: Drosophila melanogaster; assay: Insecticidal activity against larvae of Drosophila melanogaster assessed as mortality at 100 ug/ml after 72 hr by not choice test; format: functional
[3] = test system: Spodoptera frugiperda; assay: Antifeedant activity against larvae of Spodoptera frugiperda (fall armyworm) assessed reduction of weight gain at 35 ppm after 21 days relative to control; format: functional; design: scale not given: the % may be the effect or the level left
[4] = test system: Spodoptera frugiperda; assay: Antifeedant activity against larvae of Spodoptera frugiperda (fall armyworm) assessed reduction of weight gain at 50 ppm after 21 days relative to control; format: functional; design: scale not given: the % may be the effect or the level left
[5] = test system: Spodoptera frugiperda; assay: Antifeedant activity against larvae of Spodoptera frugiperda (fall armyworm) at 50 ug/ml after 12 to 24 hr; format: functional
[6] = test system: Spodoptera frugiperda; assay: Antifeedant activity against larvae of Spodoptera frugiperda (fall armyworm) at 10 ug/ml after 12 to 24 hr; format: functional
[7] = test system: Spodoptera frugiperda; assay: Antifeedant activity against larvae of Spodoptera frugiperda (fall armyworm) assessed reduction of pupation at 20 ppm after 21 days relative to control; format: functional; design: scale not given: the % may be the effect or the level left
[8] = test system: Spodoptera frugiperda; assay: Insecticidal activity against larvae of Spodoptera frugiperda (fall armyworm) assessed growth index at 50 ppm relative to control; format: functional
[9] = test system: Spodoptera frugiperda; assay: Insecticidal activity against larvae of Spodoptera frugiperda (fall armyworm) assessed growth index at 25 ppm relative to control; format: functional
[10] = test system: Spodoptera frugiperda; assay: Insecticidal activity against larvae of Spodoptera frugiperda (fall armyworm) assessed induction of prothetely appearance of precocious pupal structures in larvae at 50 ug/ml, po after 48 to 72 hr; format: functional, organism-based
[11] = test system: Spodoptera frugiperda; assay: Insecticidal activity against larvae of Spodoptera frugiperda (fall armyworm) assessed mortality at 35 ppm after 21 days relative to control; format: functional; details: 504 h
[12] = test system: Spodoptera frugiperda; assay: Antifeedant activity against larvae of Spodoptera frugiperda (fall armyworm) assessed reduction of adult emergence at 50 ppm after 21 days relative to control; format: functional; design: scale not given: the % may be the effect or the level left
[13] = test system: Spodoptera frugiperda; assay: Antifeedant activity against larvae of Spodoptera frugiperda (fall armyworm) assessed reduction of weight gain at 10 ppm after 21 days relative to control; format: functional; design: scale not given: the % may be the effect or the level left
[14] = test system: Spodoptera frugiperda; assay: Antifeedant activity against larvae of Spodoptera frugiperda (fall armyworm) assessed reduction of pupation at 35 ppm after 21 days relative to control; format: functional; design: scale not given: the % may be the effect or the level left
[15] = test system: Drosophila melanogaster; assay: Insecticidal activity against larvae of Drosophila melanogaster assessed as mortality after 72 hr by not choice test; format: functional
[16] = test system: Spodoptera frugiperda; assay: Insecticidal activity against larvae of Spodoptera frugiperda (fall armyworm) assessed induction of apolysis at 25 ug/ml, po after 21 days; format: functional, organism-based
[17] = test system: Drosophila melanogaster; assay: Insecticidal activity against larvae of Drosophila melanogaster assessed as mortality at 50 ug/ml after 72 hr by not choice test; format: functional
[18] = test system: Spodoptera frugiperda; assay: Antifeedant activity against larvae of Spodoptera frugiperda (fall armyworm) at 100 ug/ml after 12 to 24 hr; format: functional
[19] = test system: Spodoptera frugiperda; assay: Insecticidal activity against larvae of Spodoptera frugiperda (fall armyworm) assessed growth index at 35 ppm; format: functional
[20] = test system: Drosophila melanogaster; assay: Antifeedant activity against larvae of Drosophila melanogaster at 50 ug/ml after 12 to 24 hr; format: functional
[21] = test system: Spodoptera frugiperda; assay: Insecticidal activity against larvae of Spodoptera frugiperda (fall armyworm) assessed mortality at 10 ppm after 21 days relative to control; format: functional; details: 504 h
[22] = test system: Spodoptera frugiperda; assay: Antifeedant activity against larvae of Spodoptera frugiperda (fall armyworm) assessed reduction of adult emergence at 10 ppm after 21 days relative to control; format: functional; design: scale not given: the % may be the effect or the level left
[23] = test system: Spodoptera frugiperda; assay: Insecticidal activity against larvae of Spodoptera frugiperda (fall armyworm) assessed mortality at 50 ppm after 21 days relative to control; format: functional; details: 504 h
[24] = test system: Spodoptera frugiperda; assay: Antifeedant activity against larvae of Spodoptera frugiperda (fall armyworm) assessed reduction of pupation at 10 ppm after 21 days relative to control; format: functional; design: scale not given: the % may be the effect or the level left
[25] = test system: Drosophila melanogaster; assay: Antifeedant activity against larvae of Drosophila melanogaster at 25 ug/ml after 12 to 24 hr; format: functional
[26] = test system: Spodoptera frugiperda; assay: Insecticidal activity against larvae of Spodoptera frugiperda (fall armyworm) assessed growth index at 10 ppm relative to control; format: functional
[27] = test system: Spodoptera frugiperda; assay: Antifeedant activity against larvae of Spodoptera frugiperda (fall armyworm) assessed reduction of weight gain at 20 ppm after 21 days relative to control; format: functional; design: scale not given: the % may be the effect or the level left
[28] = test system: Spodoptera frugiperda; assay: Insecticidal activity against larvae of Spodoptera frugiperda (fall armyworm) assessed mortality at 20 ppm after 21 days relative to control; format: functional; details: 504 h
[29] = test system: Spodoptera frugiperda; assay: Antifeedant activity against larvae of Spodoptera frugiperda (fall armyworm) assessed reduction of adult emergence at 35 ppm after 21 days relative to control; format: functional; design: scale not given: the % may be the effect or the level left
[30] = test system: Spodoptera frugiperda; assay: Insecticidal activity against larvae of Spodoptera frugiperda (fall armyworm) assessed growth index at 50 ppm; format: functional
[31] = test system: Spodoptera frugiperda; assay: Insecticidal activity against larvae of Spodoptera frugiperda (fall armyworm) assessed inhibition of ecdysis at 25 ug/ml, po after 21 days; format: functional, organism-based
[32] = test system: Drosophila melanogaster; assay: Insecticidal activity against larvae of Drosophila melanogaster assessed as mortality at 20 ug/ml after 72 hr by not choice test; format: functional
[33] = test system: Spodoptera frugiperda; assay: Antifeedant activity against larvae of Spodoptera frugiperda (fall armyworm) assessed reduction of pupation at 50 ppm after 21 days relative to control; format: functional; design: scale not given: the % may be the effect or the level left
[34] = test system: Spodoptera frugiperda; assay: Insecticidal activity against larvae of Spodoptera frugiperda (fall armyworm) assessed growth index at 35 ppm relative to control; format: functional
[35] = test system: Drosophila melanogaster; assay: Antifeedant activity against larvae of Drosophila melanogaster at 100 ug/ml after 12 to 24 hr; format: functional
[36] = test system: Spodoptera frugiperda; assay: Insecticidal activity against larvae of Spodoptera frugiperda (fall armyworm) assessed growth index at 10 ppm; format: functional
[37] = test system: Spodoptera frugiperda; assay: Antifeedant activity against larvae of Spodoptera frugiperda (fall armyworm) at 5 ug/ml after 12 to 24 hr; format: functional
[38] = test system: Spodoptera frugiperda; assay: Antifeedant activity against larvae of Spodoptera frugiperda (fall armyworm) assessed reduction of adult emergence at 20 ppm after 21 days relative to control; format: functional; design: scale not given: the % may be the effect or the level left
[39] = test system: Spodoptera frugiperda; assay: Antifeedant activity against larvae of Spodoptera frugiperda (fall armyworm) at 25 ug/ml after 12 to 24 hr; format: functional
[40] = test system: Drosophila melanogaster; assay: Antifeedant activity against larvae of Drosophila melanogaster at 10 ug/ml after 12 to 24 hr; format: functional
[41] = test system: Spodoptera frugiperda; assay: Insecticidal activity against larvae of Spodoptera frugiperda (fall armyworm) assessed mortality at 25 ppm after 21 days relative to control; format: functional; details: 504 h
[42] = test system: Spodoptera frugiperda; assay: Antifeedant activity against larvae of Spodoptera frugiperda (fall armyworm) assessed reduction of adult emergence at 25 ppm after 21 days relative to control; format: functional; design: scale not given: the % may be the effect or the level left
[43] = test system: Spodoptera frugiperda; assay: Antifeedant activity against larvae of Spodoptera frugiperda (fall armyworm) assessed reduction of weight gain at 25 ppm after 21 days relative to control; format: functional; design: scale not given: the % may be the effect or the level left
[44] = test system: Spodoptera frugiperda; assay: Antifeedant activity against larvae of Spodoptera frugiperda (fall armyworm) assessed reduction of pupation at 25 ppm after 21 days relative to control; format: functional; design: scale not given: the % may be the effect or the level left

| Structure (SMILES) | Growth_index [1] | mortality at 100 µg/mL [2] | Activity [4] | AFI [5] | AFI [6] | Ratio [8] | Ratio [9] | Activity [12] | Activity [13] | LC50 [15] | mortality at 50 µg/mL [17] | AFI [18] | AFI [20] | mortality at 10 ppm [21] | Activity [22] | mortality at 50 ppm [23] | Activity [24] | AFI [25] | Ratio [26] | Growth_index [30] | further results |
| --- | --- | --- | --- | --- | --- | --- | --- | --- | --- | --- | --- | --- | --- | --- | --- | --- | --- | --- | --- | --- | --- |
| C[C@@H]1O[C@@H](O[C@@H]2[C@@H](O)[C@H](OCCc3ccc(O)c(O)c3)O[C@H](CO)[C@H]2OC(=O)/C=C/c2ccc(O)c(O)c2)[C@H](O)[C@H](O)[C@H]1O [ACETOSIDE] | 0.41 | 100% | 0% | 100% | 88.2% | 0.1 | 0.45 | 0% | 2.15% | 8.08 mg/L (≈ 12.9 µM) | 100% | 100% | 100% | 81.3% | 0% | 100% | 3.1% | 100% | 0.67 | 0.07 | Activity [3]: 0%; Activity [7]: 3.1%; Activity [10]: Active; mortality at 35 ppm [11]: 100%; Activity [14]: 0%; Activity [16]: Active; Growth_index [19]: 0.09; Activity [27]: 1.35%; mortality at 20 ppm [28]: 100%; Activity [29]: 0%; inhibition [31]: Active; mortality at 20 µg/mL [32]: 92%; Activity [33]: 0%; Ratio [34]: 0.15; AFI [35]: 100%; Growth_index [36]: 0.66; AFI [37]: 78.9%; Activity [38]: 0%; AFI [39]: 96.7%; AFI [40]: 89% |
| CC(=O)O[C@@H]1C[C@H]2C(C)(C)C(=O)C=C[C@]2(C)[C@H]2CC[C@@]3(C)[C@H](c4ccoc4)OC(=O)[C@H]4O[C@]43[C@@]21C [GEDUNIN] | 0.51 | 100% | 0% | 89.9% | 74.5% | 0.11 | 0.55 | 0% | 2.05% | 11.9 mg/L (≈ 24.7 µM) | 100% | 100% | 100% | 11.6% | 15% | 100% | 54.2% | 98% | 0.71 | 0.1 | mortality at 25 ppm [41]: 8.4%; Activity [42]: 13%; Activity [43]: 1.35%; Activity [44]: 41.7%; mortality at 20 µg/mL [32]: 87.1%; Activity [33]: 0%; AFI [35]: 100%; Growth_index [36]: 0.77; AFI [37]: 68.8%; AFI [39]: 85.6%; AFI [40]: 81% |
